Experimental data reported in US20120009601A1, “METHODS AND COMPOSITIONS FOR REPROGRAMMING CELLS” (THE GENERAL HOSPITAL CORPORATION, priority 2010, published 2012).
Entries after “also recorded” stand apart in the source; their conditions may differ.

What was measured:
[1] = system: human iPS cells that carry mutant p53; test: Evaluation of cancerous risk: microvessel density (MVD) within teratomas from human iPS cell lines in mice; format: in vivo; settings: cells treated with PRIMA-1 20 μM; teratomas in immunodeficient mice, anti-CD31 immunofluorescence
Excerpt: The various human iPS cell lines (No. 1-No. 4) were inoculated intramuscularly into immunodeficient mice (Rag2^−/− Il2rg^−/−). Then, microvessel density (MVD) was compared within teratomas in mice among each group. Furthermore, for angiogenesis in teratomas from each human iPS cell lines, microvessel density (MVD) per high-powered field (h.p.f.) of teratomas was quantified by human-specific anti-CD31 immunofluorescence. n=3-6; All values were mean±s.e.m.
By using microvessel density analysis (MVD) within SCID mice that were transplanted with ChiPS cell lines, risk evaluation of malignant transformations were performed for human iPS cell lines established by various methods (3) (4) (5) (6), including the results described herein (FIG. 9). […] Then, p53-175N, p53-175S and p53-175D were identified as p53-mutational spots in human iPS cells which carry mutant p53, with codon 175 in human p53 being known as one mutational spot in human cancer (7).

[2] = system: human iPS cells which carry mutant p53; test: PRIMA-1 treatment of human iPS cells carrying mutant p53 (p21 expression, p53-dependent apoptosis); format: cell-based; settings: PRIMA-1 20 μM
Protocol: Next, human iPS cells that carry mutant p53 were selected and treated with PRIMA-1 (20 μM).

[3] = system: human iPS cells having wild-types p53; test: PRIMA-1 treatment of human iPS cells carrying wild-type p53 (p53-dependent apoptosis); format: cell-based; settings: PRIMA-1 20 μM; human iPS cells with wild-type p53
[4] = system: induced hepatocyte-like cells (iHep); test: Generation of human iPS cells (iPS-hHepC) from induced hepatocyte-like cells (iHep); format: cell-based; settings: 96 hr
Protocol: Human induced pluripotent stem (iPS) cells were generated from the hepatocyte-like cells that had been generated from human hepatoma cells, using 5′-aza-2′-deoxycytidine (5-AZAC) plus trichostatin A (TSA) without Oct3/4 and c-Myc. The iHep were maintained using a medium for Primate ES cell culture supplemented with 40 ng/ml of hepatocytes growth factor and 20 ng/ml of epidermal growth factor. Furthermore, 500 nM 5′-aza-2′ deoxycytidine (5-AZAC), 150 nM trichostatin A (TSA), 1 μM EMD 616452 as an inhibitor for Tgf beta receptor I kinase/activin-like kinase 5 (Alk5) and 0.5 mM valproic acid (VPA) were administered in the Primate ES cell medium for 96 hr. After 14 days, human iPS cells (iPS-hHepC) were established. Oct3/4 was reactivated by 5-AZAC+TSA. Furthermore, Sox2 and Klf4 were reactivated by EMD 616452 and VPA, respectively.

## O=C1C2CCN(CC2)C1(CO)CO [PRIMA-1, 2,2-Bis(hydroxymethyl)-1-azabicyclo[2.2.2]octan-3-one]
[1]
  MVD in human iPS cells carrying mutant p53: equivalent to that of human iPS cell lines established by small molecules
[2]; human iPS cells that have mutant p53
  induction of p53-dependent apoptosis: induction of p53-dependent apoptosis
[2]; human iPS cells which carry mutant p53
  expression of p53 target genes p21: induced
[3]
  induction of p53-dependent apoptosis: not observed; also recorded: not found

## CCCC(CCC)C(=O)O [VPA, valproic acid]
[4]; 0.5 mM VPA, Primate ES cell medium
  Klf4 reactivation: reactivated

## Cc1cccc(-c2[nH]ncc2-c2ccc3ncccc3n2)n1 [EMD 616452]
[4]; 1 μM EMD 616452, Primate ES cell medium
  Sox2 reactivation: reactivated
